Here are results for 1 molecule from US9737523B2, “Anti-fibrogenic compounds, methods and uses thereof” (priority 2013, dated 2017).

For test [1], the system named is HACAT. In words: MMP-1 expression in keratinocyte cell line HACAT, Western blot. In kind it is cell-based, human. The note with it: 12.5 to 150 μg/ml, 48 hours. The protocol: The squamous cell carcinoma (UMSCC) cell line derived from patients with head and neck cancer (ATCC™, Manassas, Va.) were maintained in RPMI-1640 medium with 10% FBS. The Human keratinocyte cell line HACAT (ATCC) and the carcinomic human alveolar basal epithelial cell line A549 (ATCC™) were cultured in DMEM with 10% FBS. The diploid lung fibroblasts IMR-90 (ATCC™) were maintained in Minimum Essential Medium (MEM, Invitrogen™) with 10% FBS.
Similarly, other cells such as synoviocytes, IMR-90, keratinocytes, UMSCC and A549 were treated with kynurenine at concentrations of 12.5 to 150 μg/ml in appropriate media for each cell type as described above for 48 hours. Cells were then harvested for western blot analysis.
Cells were harvested by Trypsin/EDTA and lysed with cell lysis buffer containing 50 mM Tris-HCl (pH7.40), 150 mM NaCl, 10 mM EDTA, 5 mM EGTA, 1% TritonX-100™, 0.5% Igepal CA-630, 0.025% NaN3 and protease inhibitor cocktail (Sigma™). Cell debris was removed by centrifugation at 20,000×g for 10 minutes. The protein concentration in supernatant was determined using the MicroBCA™ method (Pierce™, Rockford, Ill.). Proteins in supernatant were mixed with protein sample loading buffer (final concentration: 60 mM Tris-HCl (pH 6.80), 2% SDS, 10% glycerol, 1.5% β-mercaptoethanol, 0.002% bromophenol blue) and size fractioned by 10% of SDS-polyacrylamide gel. […]
For orientation: Immunoblotting shows a protein as a band on a membrane.

Test [2] has as its system rabbit ear wounds. In words: Rabbit ear hypertrophic scar model, topical application. The test is classed as in vivo. The procedure:
Female rabbits (New Zealand white) weighing 4.5-5 kg were used for this study. The protocol was reviewed and approved by the University of British Columbia animal care committees. The rabbit ear model of hypertrophic scar was created as described previously (Rahmani-Neishaboor, et al., 2010). Briefly, 2 rabbits were anesthetized by intramuscular injection of ketamine (22.5 mg/kg) and xylazine (2.5 mg/kg) followed by isoflurane gas through tracheal intubation. Four wounds were created down to bare cartilage on the ventral side of each ear using an 8-mm dermal biopsy punch to remove full-thickness sections of skin. Antibiotics were applied on wounds daily until kynurenine treatment was started.
Kynureine in CMC gel (Rahmani-Neishaboor et al., 2010) with a concentration of 500 μg/ml was applied topically to the wounds of the experimental group (0.1 ml per wound) daily for 3 weeks starting at 1 week post wounding. The wounds of the control group were received the treatment with an equal amount of cream alone daily.
Animals were sacrificed on weeks 3 after treatments. Scars (10 mm punch biopsies) were harvested. Each scar was sectioned in two along its longitudinal axis and half of which was processed for routine histological analysis and another half was kept at −80° C. for future use.
Scar elevation was quantified by measuring Scar Elevation Index (SEI) from the H & E stained tissue section. The SEI is a ratio of total height in the wound tissue to the normal tissue below the hypertrophic scar.
According to a method previously reported (Gawronskao-Kozak B. et al. 2006), half of 8 mm diameter skin punches were weighed and frozen in −80° C. Skins were homogenized in 2 ml of PBS and stored at 4° C. overnight. The next day, 1 ml of 6N HCl was added and the mixture was heated at 120° C. for 5 hours. 20 μl of cooled samples and 50 μl of chloramine T solution were added to the 96-well plate and incubated at room temperature for 20 minutes. 50 μl of Erlich solution was then added and the mixture was incubated at 65° C. for 15 minutes. Absorbance was read at 570 nm. Hydroxyproline concentration was calculated by a standard curve.
RNA was extracted by Trizol™ (Invitrogen Life Technologies™). Briefly, 1 ml of Trizol™ was added to the homogenized skin tissue. 250 μl of chloroform was added after the mixture was standed at room temperature for 5 minutes. Top aqueous phase was transferred into a new eppendorf tube after centrifugation for 10 minute at 20,000×g. Equal volume isopropanol was added to the aqueous phase and mixed gently. The pellet was washed with 1 ml of 75% ethanol after centrifugation for 20 minutes. RNA was dissolved in DEPC treated H2O and its concentration was measured by Nanodrop2000™. cDNA was synthesized by cDNA synthesis kit from Roche according to manufacture's introduction using 1 μg of total RNA in each sample. Quantitative real-time PCR for rabbit type-1 α1 collagen, MMP-1 and housekeeper gene β-actin were performed in ViiA7 (Invitrogen™). cDNA samples were added to a PCR reaction master mix containing STBR Green Master Mix™ (Rox) (Roche™, Indianapolis, Ind.). All reactions were performed in duplicate using the following cycle conditions: 1 cycle of 95° C. for 10 minutes, 40 cycles of 95° C. for 15 seconds and 60° C. for 1 minute. The expression level of type-1 α1 collagen and MMP-1 in each sample was normalised to β-actin. RT-PCR primers: rabbit type-1 α1 collagen: 5′-[…]-3′ (Forward), 5′-[…]-3′ (Reverse); MMP-1,5′-[…]-3′ (Forward), 5′-[…]-3′ (Reverse); β-actin, 5′-[…]-3′ (Forward), 5′-[…]-3′(Reverse).

The mark [3] stands for this setting: 50 μg in 0.1 ml CMC gel daily for three weeks.
The mark [4] stands for this setting: topical, versus no treatment or gel alone.

Each structure is given as a SMILES string.

As for `Nc1ccccc1C(=O)CC(N)C(=O)O` (racemic) [kynurenine], in test [1], the “MMP-1 expression versus untreated controls” value is “did not significantly differ”. In addition, in test [2] (setting [3]), the “collagen content (Massons' trichrome staining)” value was “significant reduction” and the “hydroxyproline content (index for tissue collagen content)” value is given as “significant lower”. The “average scar elevation index (SEI)” value in test [2] (50 μg in 0.1 ml CMC gel daily for three weeks, n=8, vehicle 1.978±0.442, untreated 2.098±0.324) amounted to 1.172±0.156. In addition, the “scarring versus non-treated or vehicle-only wounds” value in test [2] (50 μg in 0.1 ml CMC gel daily, after three weeks) is on record as “significantly less scarring”. Moreover, the “wound closure versus untreated or CMC gel treated controls” value in test [2] (50 μg in 0.1 ml CMC gel daily, three weeks from day 8 post-wounding, data not shown) is “no significant difference”. Besides, in test [2] (setting [4]), the “expression of MMP-1 in rabbit ear skin (quantitative RT-PCR)” value was “increased” and the “expression of type-1 α1 collagen in rabbit ear skin (quantitative RT-PCR)” value was “decreased”.
